Assay results published in US11339419B2, “Scavenger protein(s) for improved preservation of analyte detection sensor(s) and method(s) of use thereof” (Siemens Healthcare Diagnostics Inc., priority 2017, dated 2022).
Several values for one entry are separate records, joined by “and”; a condition that tells them apart may be missing. Identical values can stand only once.

Assays:
Format in all cases: biochemical
[1] = system: sarcosine oxidase (BBI Solutions); assay: BBI Solutions Sarcosine Oxidase Enzyme Absorbance with BSA and Proclin 300
Excerpt: (§1) Absorbance measurements of the sarcosine oxidase enzyme(s) were taken via spectrophotometer for each aqueous solution (represented as columns 1-5 in Tables 1-4—column 6 is a blank), the absorbance being directly proportional to the enzyme activity being measured-which for Tables 1-4 is sarcosine oxidase enzyme activity. Accordingly, the higher the absorbance measurement, the higher the enzyme activity of sarcosine oxidase. […] In addition, the mean values, standard deviations, and coefficients of variation are also presented for the enzyme activity/absorbance of each aqueous solution. All measurements were taken at 37° C.

[2] = system: creatininase (BBI Solutions); assay: BBI Solutions Creatininase Enzyme Absorbance with BSA and Proclin 300
Excerpt: as §1, with “creatininase” for “sarcosine oxidase”, “5-8—column” for “1-4—column”, “5-8” for “1-4”, “creatininase.” for “sarcosine oxidase.”, “all” for “also”

creatininase (Toyobo) = assay: Toyobo Creatininase Enzyme Absorbance with BSA and Proclin 300
Excerpt: as §1, with “creatininase” for “sarcosine oxidase”, “5-8—column” for “1-4—column”, “5-8” for “1-4”, “creatininase.” for “sarcosine oxidase.”, “all” for “also”

[3] = Day 0, BSA 5 mg/mL only, no Proclin 300, line of 0.7% Proclin 300
[4] = Day 0, BSA 5 mg/mL only, no Proclin 300, line of 1.4% Proclin 300
[5] = Day 0, BSA 25 mg/mL only, no Proclin 300, line of 0.7% Proclin 300
[6] = Day 0, BSA 25 mg/mL only, no Proclin 300, line of 1.4% Proclin 300
[7] = Day 0, BSA 50 mg/mL only, no Proclin 300, line of 0.7% Proclin 300
[8] = Day 0, BSA 50 mg/mL only, no Proclin 300, line of 1.4% Proclin 300
[9] = Day 4, BSA 5 mg/mL only, no Proclin 300, line of 0.7% Proclin 300
[10] = Day 4, BSA 5 mg/mL only, no Proclin 300, line of 1.4% Proclin 300
[11] = Day 4, BSA 25 mg/mL only, no Proclin 300, line of 0.7% Proclin 300
[12] = Day 4, BSA 25 mg/mL only, no Proclin 300, line of 1.4% Proclin 300
[13] = Day 4, BSA 50 mg/mL only, no Proclin 300, line of 0.7% Proclin 300
[14] = Day 4, BSA 50 mg/mL only, no Proclin 300, line of 1.4% Proclin 300
[15] = Day 14, BSA 5 mg/mL only, no Proclin 300, line of 0.7% Proclin 300
[16] = Day 14, BSA 5 mg/mL only, no Proclin 300, line of 1.4% Proclin 300
[17] = Day 14, BSA 25 mg/mL only, no Proclin 300, line of 0.7% Proclin 300
[18] = Day 14, BSA 25 mg/mL only, no Proclin 300, line of 1.4% Proclin 300
[19] = Day 14, BSA 50 mg/mL only, no Proclin 300, line of 0.7% Proclin 300
[20] = Day 14, BSA 50 mg/mL only, no Proclin 300, line of 1.4% Proclin 300
[21] = days 4 and 14, only BSA, no Proclin 300
[22] = Day 0, BSA 5 mg/mL only, no Proclin 300, listed as of 0.7% Proclin 300
[23] = Day 0, BSA 5 mg/mL only, no Proclin 300, listed as of 1.4% Proclin 300
[24] = Day 0, BSA 25 mg/mL only, no Proclin 300, listed as of 0.7% Proclin 300
[25] = Day 0, BSA 25 mg/mL only, no Proclin 300, listed as of 1.4% Proclin 300
[26] = Day 0, BSA 50 mg/mL only, no Proclin 300, listed as of 0.7% Proclin 300
[27] = Day 0, BSA 50 mg/mL only, no Proclin 300, listed as of 1.4% Proclin 300
[28] = Day 4, BSA 5 mg/mL only, no Proclin 300, listed as of 0.7% Proclin 300
[29] = Day 4, BSA 5 mg/mL only, no Proclin 300, listed as of 1.4% Proclin 300
[30] = Day 4, BSA 25 mg/mL only, no Proclin 300, listed as of 0.7% Proclin 300
[31] = Day 4, BSA 25 mg/mL only, no Proclin 300, listed as of 1.4% Proclin 300
[32] = Day 4, BSA 50 mg/mL only, no Proclin 300, listed as of 0.7% Proclin 300
[33] = Day 4, BSA 50 mg/mL only, no Proclin 300, listed as of 1.4% Proclin 300
[34] = Day 14, BSA 5 mg/mL only, no Proclin 300, listed as of 0.7% Proclin 300
[35] = Day 14, BSA 5 mg/mL only, no Proclin 300, listed as of 1.4% Proclin 300
[36] = Day 14, BSA 25 mg/mL only, no Proclin 300, listed as of 0.7% Proclin 300
[37] = Day 14, BSA 25 mg/mL only, no Proclin 300, listed as of 1.4% Proclin 300
[38] = Day 14, BSA 50 mg/mL only, no Proclin 300, listed as of 0.7% Proclin 300
[39] = Day 14, BSA 50 mg/mL only, no Proclin 300, listed as of 1.4% Proclin 300
[40] = day 4, Proclin 300 0.7%, 5, 25 and 50 mg/mL BSA

bovine serum albumin [BSA]
Absorbance, solutions 7-11 [1, 3]: 1.447 and 1.677 and 1.453 and 1.748 | MEAN absorbance, solutions 7-11 [1, 3]: 1.51 | Absorbance, solutions 7-11 [1, 4]: 1.464 and 1.437 and 1.453 and 1.458 and 1.444 | MEAN absorbance, solutions 7-11 [1, 4]: 1.40 | Absorbance, solutions 7-11 [1, 5]: 1.429 and 1.441 and 1.415 and 1.398 and 1.406 | MEAN absorbance, solutions 7-11 [1, 5]: 1.37 | Absorbance, solutions 7-11 [1, 6]: 1.39 and 1.396 and 1.375 and 1.392 and 1.376 | MEAN absorbance, solutions 7-11 [1, 6]: 1.34 | Absorbance, solutions 7-11 [1, 7]: 1.376 and 1.375 and 1.399 and 1.416 and 1.421 | MEAN absorbance, solutions 7-11 [1, 7]: 1.35 | Absorbance, solutions 7-11 [1, 8]: 1.402 and 1.394 and 1.401 and 1.397 and 1.396 | MEAN absorbance, solutions 7-11 [1, 8]: 1.35 | Absorbance, solutions 7-11 [1, 9]: 1.505 and 1.507 and 1.518 and 1.472 and 1.484 | MEAN absorbance, solutions 7-11 [1, 9]: 1.45 | Absorbance, solutions 7-11 [1, 10]: 1.446 and 1.471 and 1.449 and 1.46 and 1.484 | MEAN absorbance, solutions 7-11 [1, 10]: 1.42 | Absorbance, solutions 7-11 [1, 11]: 1.45 and 1.451 and 1.465 and 1.418 and 1.415 | MEAN absorbance, solutions 7-11 [1, 11]: 1.40 | Absorbance, solutions 7-11 [1, 12]: 1.416 and 1.421 and 1.436 and 1.431 and 1.426 | MEAN absorbance, solutions 7-11 [1, 12]: 1.38 | Absorbance, solutions 7-11 [1, 13]: 1.416 and 1.425 and 1.435 and 1.402 and 1.421 | MEAN absorbance, solutions 7-11 [1, 13]: 1.38 | Absorbance, solutions 7-11 [1, 14]: 1.38 and 1.397 and 1.399 and 1.403 | MEAN absorbance, solutions 7-11 [1, 14]: 1.35 | Absorbance, solutions 7-11 [1, 15]: 1.53 and 1.542 and 1.526 and 1.538 and 1.535 | MEAN absorbance, solutions 7-11 [1, 15]: 1.49 | Absorbance, solutions 7-11 [1, 16]: 1.527 and 1.53 and 1.526 and 1.566 | MEAN absorbance, solutions 7-11 [1, 16]: 1.49 | Absorbance, solutions 7-11 [1, 17]: 1.498 and 1.527 and 1.533 and 1.503 and 1.505 | MEAN absorbance, solutions 7-11 [1, 17]: 1.47 | Absorbance, solutions 7-11 [1, 18]: 1.499 and 1.497 and 1.533 and 1.539 and 1.525 | MEAN absorbance, solutions 7-11 [1, 18]: 1.47 | Absorbance, solutions 7-11 [1, 19]: 1.493 and 1.499 and 1.505 and 1.513 and 1.541 | MEAN absorbance, solutions 7-11 [1, 19]: 1.46 | Absorbance, solutions 7-11 [1, 20]: 1.467 and 1.491 and 1.482 and 1.534 and 1.529 | MEAN absorbance, solutions 7-11 [1, 20]: 1.46 | absorbance of the sarcosine oxidase enzyme compared to samples containing 0 mg/mL of BSA ([1]; days 4 and 14, 5, 25 and 50 mg/mL BSA, with Proclin 300): increased absorbance | sarcosine oxidase absorbance, solutions 7-11 [1, 21]: increased (or at least maintained) | Absorbance, solutions 7-11 [2, 22]: 0.658 and 0.656 and 0.654 and 0.693 and 0.67 | MEAN absorbance, solutions 7-11 [2, 22]: 0.45 | Absorbance, solutions 7-11 [2, 23]: 0.65 and 0.644 and 0.679 and 0.656 and 0.652 | MEAN absorbance, solutions 7-11 [2, 23]: 0.44 | Absorbance, solutions 7-11 [2, 24]: 0.669 and 0.654 and 0.645 and 0.676 and 0.685 | MEAN absorbance, solutions 7-11 [2, 24]: 0.45 | Absorbance, solutions 7-11 [2, 25]: 0.613 and 0.607 and 0.624 and 0.644 and 0.627 | MEAN absorbance, solutions 7-11 [2, 25]: 0.41 | Absorbance, solutions 7-11 [2, 26]: 0.682 and 0.675 and 0.716 | MEAN absorbance, solutions 7-11 [2, 26]: 0.48 | Absorbance, solutions 7-11 [2, 27]: 0.593 and 0.598 and 0.617 and 0.624 and 0.606 | MEAN absorbance, solutions 7-11 [2, 27]: 0.39 | Absorbance, solutions 7-11 [2, 28]: 0.886 and 0.907 and 0.938 and 0.922 and 0.893 | MEAN absorbance, solutions 7-11 [2, 28]: 0.69 | Absorbance, solutions 7-11 [2, 29]: 0.863 and 0.829 and 0.895 and 0.929 and 0.882 | MEAN absorbance, solutions 7-11 [2, 29]: 0.65 | Absorbance, solutions 7-11 [2, 30]: 0.783 and 0.769 and 0.787 and 0.807 | MEAN absorbance, solutions 7-11 [2, 30]: 0.56 | Absorbance, solutions 7-11 [2, 31]: 0.757 and 0.715 and 0.735 and 0.756 and 0.767 | MEAN absorbance, solutions 7-11 [2, 31]: 0.52 | Absorbance, solutions 7-11 [2, 32]: 0.671 and 0.651 and 0.656 and 0.677 and 0.657 | MEAN absorbance, solutions 7-11 [2, 32]: 0.44 | Absorbance, solutions 7-11 [2, 33]: 0.671 and 0.657 and 0.676 and 0.674 and 0.645 | MEAN absorbance, solutions 7-11 [2, 33]: 0.44 | Absorbance, solutions 7-11 [2, 34]: 0.993 and 0.992 and 0.972 and 1.009 | MEAN absorbance, solutions 7-11 [2, 34]: 0.76 | Absorbance, solutions 7-11 [2, 35]: 0.987 and 0.959 and 0.967 and 1.007 and 0.986 | MEAN absorbance, solutions 7-11 [2, 35]: 0.75 | Absorbance, solutions 7-11 [2, 36]: 0.841 and 0.843 and 0.815 and 0.846 and 0.808 | MEAN absorbance, solutions 7-11 [2, 36]: 0.60 | Absorbance, solutions 7-11 [2, 37]: 0.825 and 0.799 and 0.805 and 0.829 and 0.817 | MEAN absorbance, solutions 7-11 [2, 37]: 0.59 | Absorbance, solutions 7-11 [2, 38]: 0.672 and 0.653 and 0.659 and 0.682 and 0.685 | MEAN absorbance, solutions 7-11 [2, 38]: 0.44 | Absorbance, solutions 7-11 [2, 39]: 0.652 and 0.643 and 0.64 and 0.67 and 0.655 | MEAN absorbance, solutions 7-11 [2, 39]: 0.42 | absorbance of the creatininase enzyme compared to samples containing 0 mg/mL of BSA [2, 40]: mild increase | creatininase absorbance, solutions 7-11 [2, 21]: increased (or at least maintained) | Absorbance, solutions 7-11 (creatininase (Toyobo); [22]): 0.749 | MEAN absorbance, solutions 7-11 (creatininase (Toyobo); [22]): 0.61 | Absorbance, solutions 7-11 (creatininase (Toyobo); [23]): 0.569 and 0.573 and 0.57 and 0.582 | MEAN absorbance, solutions 7-11 (creatininase (Toyobo); [23]): 0.47 | Absorbance, solutions 7-11 (creatininase (Toyobo); [24]): 0.529 | MEAN absorbance, solutions 7-11 (creatininase (Toyobo); [24]): 0.40 | Absorbance, solutions 7-11 (creatininase (Toyobo); [25]): 0.508 and 0.507 and 0.518 and 0.514 | MEAN absorbance, solutions 7-11 (creatininase (Toyobo); [25]): 0.41 | Absorbance, solutions 7-11 (creatininase (Toyobo); [26]): 0.973 | MEAN absorbance, solutions 7-11 (creatininase (Toyobo); [26]): 1.39 | Absorbance, solutions 7-11 (creatininase (Toyobo); [27]): 0.488 and 0.464 and 0.506 | MEAN absorbance, solutions 7-11 (creatininase (Toyobo); [27]): 0.39 | MEAN absorbance, solutions 7-11 (creatininase (Toyobo); [28]): 0.87 | MEAN absorbance, solutions 7-11 (creatininase (Toyobo); [29]): 0.78 | MEAN absorbance, solutions 7-11 (creatininase (Toyobo); [30]): 0.68 | MEAN absorbance, solutions 7-11 (creatininase (Toyobo); [31]): 0.64 | MEAN absorbance, solutions 7-11 (creatininase (Toyobo); [32]): 0.56 | MEAN absorbance, solutions 7-11 (creatininase (Toyobo); [33]): 0.54 | MEAN absorbance, solutions 7-11 (creatininase (Toyobo); [34]): 0.92 | MEAN absorbance, solutions 7-11 (creatininase (Toyobo); [35]): 0.90 | MEAN absorbance, solutions 7-11 (creatininase (Toyobo); [36]): 0.71 | MEAN absorbance, solutions 7-11 (creatininase (Toyobo); [37]): 0.71 | MEAN absorbance, solutions 7-11 (creatininase (Toyobo); [38]): 0.58 | MEAN absorbance, solutions 7-11 (creatininase (Toyobo); [39]): 0.57 | absorbance of the creatininase enzyme compared to samples containing 0 mg/mL of BSA (creatininase (Toyobo); [40]): increased (albeit a mild increase) | creatininase absorbance, solutions 7-11 (creatininase (Toyobo); [21]): increased (or at least maintained)
